Assays:
[1] = Intrinsic dissolution rate (IDR) measurement; assay type: physicochemical; conditions: phosphate buffer pH 6.8 with 1% SDS, 37 °C, 75 rpm, initial 4 h
Description: A modified IDR measurement method was carried out. In brief, 50 mg NCE was compressed under an average compression force of 3.0 MPa for 1 min to make a non-disintegrating compact using a 5 mm die and punch. The surface area of the compact was 0.1963 cm^2. Compacts were placed in a molten beeswax-mold in a way that only one side could come in contact with the dissolution medium. Dissolution study was conducted employing USP II dissolution apparatus using 900 mL phosphate buffer (0.1 mol/mL, pH = 6.8) with 1% SDS (w/v) at 37 ± 1 °C. The paddle rotating speed was 75 rpm. Samples were collected every 30 min for a period of 8 h and analyzed by HPLC. Samples were tested in triplicates.
To evaluate the IDR of NCE, the cumulative amount dissolved per surface unit of the compact was plotted against time. The slope of the linear region (R^2 ≥ 0.95) was taken as the intrinsic dissolution rate. IDR was calculated by the following equation as described previously.
(2) IDR=(dw/dt)(1/S)=DCs/h
where IDR is the intrinsic dissolution rate (mg/min/cm^2); dw is the change in drug dissolved (mg); dt is the change in time (min); S is the surface area of the compact (cm^2); D is diffusion coefficient (cm^2/s); Cs is the solubility (mg/cm^3) and h is the stagnant layer thickness (cm).

[2] = test system: VEGF-stimulated human umbilical vein endothelial cells (HUVECs); parameters: method as in PMID 21691074; conditions: in vitro; cited from earlier work
[3] = pKa determination; assay type: physicochemical; conditions: read-out: pKa of conjugate acid
[4] = Solubility with sodium dodecyl sulfate (SDS) added; assay type: physicochemical; conditions: aqueous with cosolvent or surfactant or cyclodextrin
Description: Intrinsic dissolution ratio is defined as the dissolution rate of a pure drug substance under the condition of constant surface area, agitation or stirring speed, pH and ionic strength of the dissolution medium. As a rate characterization, IDR data has a good correlation with in vivo drug dissolution rate. […] Three different SDS concentrations were tested. The solubilities of NCE were 54.46 (0.4% SDS), 131.83 (1% SDS) and 255.91 (2% SDS) μg/mL. The volume of the release medium in this experiment was 900 mL, thus the introduction of 1% SDS into the medium was enough to achieve sink condition.
The concentration of NCE in perfusion buffer containing 0.4% SDS was high enough to conduct the following intestinal permeability study. Additionally, according to preliminary experiments, SDS with concentrations higher than 1% would be toxic to rats.

For `CNC(=O)c1cc(Oc2ccc(NC(=O)c3cccc(C(F)(F)F)c3)cc2)ccn1.Cc1ccc(S(=O)(=O)O)cc1.O` [NCE, 2-methylcarbamoyl-4-{4-[3-(trifluoromethyl)benzamido]phenoxy} pyridinium 4-methylbenzenesulfonate monohydrate], the “Intrinsic dissolution rate (IDR)” value [1] is given as 1 × 10^−4 mg·min^−1·cm^−2, the “inhibition of VEGF-stimulated HUVECs proliferation” value [2] is given as “more selective inhibition” and the pKa [3] is given as 2.86. For the same molecule, the solubility ([4]; phosphate buffer with 0.4% SDS) was 54.5 µg/mL, the solubility ([4]; phosphate buffer with 1% SDS) was 132 µg/mL and the solubility ([4]; phosphate buffer with 2% SDS) was 256 µg/mL.
